Source: PubChem BioAssay (NCI)
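These data come from cells grown in 96-well plates and exposed to compound for 48 hours at five concentrations. Definition used: TGI = concentration required for complete inhibition of growth.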

What was measured:
Experiment in all cases: growth of human tumour cells (NCI), 48 h
UO-31 renal = system: UO-31 renal
UACC-62 melanoma = system: UACC-62 melanoma
HCT-116 colon = system: HCT-116 colon
CAKI-1 renal = system: CAKI-1 renal
SK-OV-3 ovarian = system: SK-OV-3 ovarian
MOLT-4 leukemia = system: MOLT-4 leukemia
ACHN renal = system: ACHN renal
SNB-75 CNS = system: SNB-75 CNS
OVCAR-8 ovarian = system: OVCAR-8 ovarian
786-0 renal = system: 786-0 renal
XF 498 CNS = system: XF 498 CNS
KM12 colon = system: KM12 colon
TK-10 renal = system: TK-10 renal
HCC-2998 colon = system: HCC-2998 colon
SK-MEL-5 melanoma = system: SK-MEL-5 melanoma
UACC-257 melanoma = system: UACC-257 melanoma
U251 CNS = system: U251 CNS
SR leukemia = system: SR leukemia
LOX IMVI melanoma = system: LOX IMVI melanoma
DLD-1 colon = system: DLD-1 colon
HOP-18 NSCLC = system: HOP-18 NSCLC
OVCAR-3 ovarian = system: OVCAR-3 ovarian
KM20L2 colon = system: KM20L2 colon
EKVX NSCLC = system: EKVX NSCLC
HL-60(TB) leukemia = system: HL-60(TB) leukemia
SK-MEL-2 melanoma = system: SK-MEL-2 melanoma
SF-268 CNS = system: SF-268 CNS
SW-620 colon = system: SW-620 colon
HOP-62 NSCLC = system: HOP-62 NSCLC
NCI-H522 lung = system: NCI-H522 lung
DMS 273 small cell lung = system: DMS 273 small cell lung
NCI-H460 lung = system: NCI-H460 lung
SF-539 CNS = system: SF-539 CNS
NCI-H23 lung = system: NCI-H23 lung
DMS 114 small cell lung = system: DMS 114 small cell lung
SN12C renal = system: SN12C renal
COLO 205 colon = system: COLO 205 colon
A549 NSCLC = system: A549 NSCLC
CCRF-CEM leukemia = system: CCRF-CEM leukemia
MALME-3M melanoma = system: MALME-3M melanoma
SF-295 CNS = system: SF-295 CNS
OVCAR-5 ovarian = system: OVCAR-5 ovarian
A498 renal = system: A498 renal
M14 melanoma = system: M14 melanoma
M19-MEL melanoma = system: M19-MEL melanoma
NCI-H226 lung = system: NCI-H226 lung
SNB-19 CNS = system: SNB-19 CNS
RXF 393 renal = system: RXF 393 renal
LXFL 529 NSCLC = system: LXFL 529 NSCLC
RPMI-8226 leukemia = system: RPMI-8226 leukemia
HCT-15 colon = system: HCT-15 colon
SNB-78 CNS = system: SNB-78 CNS
IGROV1 ovarian = system: IGROV1 ovarian
SK-MEL-28 melanoma = system: SK-MEL-28 melanoma
HT29 colon = system: HT29 colon
K-562 leukemia = system: K-562 leukemia
OVCAR-4 ovarian = system: OVCAR-4 ovarian
HOP-92 NSCLC = system: HOP-92 NSCLC

Measured: TGI

Cc1c(Cl)ccc2c1NC(=O)C2(O)CC(=O)c1cccc2ccccc12 (stereo not drawn)
63.1 µM: SR leukemia
55.8 µM: DMS 114 small cell lung
71.3 µM: OVCAR-4 ovarian
37.6 µM: M19-MEL melanoma
42.3 µM: HL-60(TB) leukemia
not listed: HOP-92 NSCLC
> 100 µM: all other assays above

N#CCCN(CCC#N)c1ccc(/C=C2\N=C(c3cc([N+](=O)[O-])ccc3Cl)N(S(=O)(=O)c3ccccc3)C2=O)cc1
not listed: SNB-75 CNS | 786-0 renal | UACC-257 melanoma | HL-60(TB) leukemia | NCI-H460 lung | A498 renal | M14 melanoma | HT29 colon
> 100 µM: all other assays above

Cc1cc(C)c(-n2c(-c3ccccc3)cs/c2=N\N=C2C=C(C(C)(C)C)C(=O)C(C(C)(C)C)=C2)c(C)c1
94.6 µM: SNB-75 CNS
not listed: UO-31 renal | A498 renal
> 100 µM: all other assays above
